test system: Plasma; assay: Half life in human plasma; assay type: ADME, cell-free

SMILES	t1/2 [h]
COC(=O)[C@H](Cc1ccc(OC(C)=O)c(OC(C)=O)c1)NC(=O)CCC(=O)N[C@@H](Cc1ccc(OC(C)=O)c(OC(C)=O)c1)C(=O)OC	0.232
CC(C)C[C@H](NC(=O)[C@H](Cc1ccccc1)NC(=O)CNC(=O)CNC(=O)[C@@H](N)Cc1ccc(O)cc1)C(=O)O [ENKEPHALIN]	13.5
CC(C)[N+](C)(CCOC(=O)C1c2ccccc2Oc2ccccc21)C(C)C [PROPANTHELINE]	6.17
COC(=O)[C@H](Cc1ccc(OC(C)=O)c(OC(C)=O)c1)NC(=O)CCCC(=O)N[C@@H](Cc1ccc(OC(C)=O)c(OC(C)=O)c1)C(=O)OC	1.05
COC(=O)[C@H](Cc1ccc(OC(C)=O)c(OC(C)=O)c1)NC(=O)N[C@@H](Cc1ccc(OC(C)=O)c(OC(C)=O)c1)C(=O)OC	1.698
COC(=O)[C@H](Cc1ccc(OC(C)=O)c(OC(C)=O)c1)NC(=O)CCCCC(=O)N[C@@H](Cc1ccc(OC(C)=O)c(OC(C)=O)c1)C(=O)OC	0.13
CC(C)[C@H](N)C(=O)OCCOCn1cnc2c(=O)[nH]c(N)nc21 (stereo in doubt; 167) [VALACYCLOVIR]	7.13

— ChEMBL document CHEMBL1821652, “QSAR models for predicting enzymatic hydrolysis of new chemical entities in 'soft-drug' design” (Bioorg Med Chem, 2009)
